Assay results published in EP0279458A1, “2-Propyl amine derivatives, processes for their preparation and their use” (GÖDECKE AKTIENGESELLSCHAFT, priority 1987, dated 1988).
Structures can show the parent of a compound that is named as a salt.

Test system: Proteinkinase C (PKC)
Test: Inhibition of PS/DO-mediated protein kinase C activity (32P incorporation into histone H-1)
Assay type: biochemical, Hühner
Source text: Zur Klärung des hemmenden Einflusses der erfindungsgemäßen Verbindungen der allgemeinen Formel I auf die Calcium- und Phospholipid-abhängige Proteinkinase (PKC) wurde diese Enzymaktivität ausgehend von einem Hühnermagenextrakt angereichert. In Anlehnung an in der Literatur beschriebene Reinigungsschritte (J. Biol. Chem. 260, S. 15718-15722, 1985) wurde bei der aus 2 Schritten bestehenden Reinigung die Eigenschaft des Enzyms ausgenutzt, in Anwesenheit von Calcium an Zellmembranen zu binden und durch Calciumchelatoren (EGTA) wieder abgelöst zu werden. Beim 1. Anreicherungsschritt erfolgte die Bindung der PKC an Membranen des Hühnermagenextraktes und im 2. Schritt an sogenannte Inside/Out-Vesikel von Erythrozyten. Nach Ablösung von den Erythrozyten-Membranen und Umpufferung lag die PKC-Präparation in 10 mM HEPES, 1 mM DTT, 0,1% PEG 20000, pH 7,5 vor und konnte unter diesen Bedingungen bei -70°C für mehrere Monate ohne Aktivitätsverlust gelagert werden.
Die Aktivität des Enzyms wurde über den Einbau von Phosphor-32-markiertem Phosphat in das durch PKC phosphorylierbare Protein Histon H-1 bestimmt. Der Test enthält dabei folgende Kumponenten: 50 mM HEPES (pH 7,5), 1 mM DTT, 5 mM MgCl₂, ca. 10 µM freies Ca²⁺, 200 µg/ml Histon, 5 µg/ml Phosphatidylserin, 1 µg/ml 1,2-Diolein, 10 µM ATP, eine jeweils geeignete Menge der PKC-Präparation und gegebenenfalls eine Testsubstanz. Die unter Standardbedingungen gemessene Kinase-Aktivität in Anwesenheit von PKC-Aktivatoren (und ohne Testsubstanz) wurde jeweils als 100% gesetzt und die Hemmwirkung der Verbindungen der allgemeinen Formel I prozentual darauf bezogen.
In Tabelle I ist die Inhibierung von PS/DO [PS: Phosphatidylserin, DO: 1,2-Diolein] vermittelter Proteinkinase C-Aktivität angegeben.

Compound	Inhibierung der PS/ DO-vermittelten PKC-Aktivität (%) (konz. 1x10^-5 mol/l, 10 µM)	Inhibierung der PS/ DO-vermittelten PKC-Aktivität (%) (konz. 1x10^-4 mol/l, 100 µM)	Inhibierung der PS/ DO-vermittelten PKC-Aktivität (%) (konz. 1x10^-6 mol/l)
CCCCCCCCCCCCCCOCC(COC(C)=O)N(C)C (racemic) [Beispiel 1b, (±)-2-Dimethylamino-3-tetradecyloxy-1-propylacetat Oxalat]	36	–	–
CCCCCCCCCCCCCCCCCCOCC(CO)N(CC)CC.O=C(O)C(=O)O (racemic) [Beispiel 2a, (±)-2-Diethylamino-3-octadecyloxy-1-propanol Oxalat]	78	100	11
CCCCCCCCCCCCCCCCCCSCC(N)CO (racemic) [Beispiel 5, (±)-2-Amino-3-octadecylthio-1-propanol]	39	–	12
CCCCCCCCCCCCCCCCCCOCC(CO)NCC (racemic) [Beispiel 2, (±)-2-Ethylamino-octadecyloxy-1-propanol · Hydrochlorid]	91	99	23
CCCCCCCCCCCCCCCCCCOCC(N)CO (racemic) [Beispiel 6, (±)-2-Amino-3-octadecyloxy-1-propanol, reference compound]	69	–	11
CCCCCCCCCCCCCCCCCCOCC(COC(C)=O)N(C)C (racemic) [Beispiel 1, (±)-2-Dimethylamino-3-octadecyloxy-1-propylacetat · Hydrochlorid]	28	–	–
CCCCCCCCCCCCCCCCOCC(COC(C)=O)N(C)C (racemic) [Beispiel 1a, (±)-2-Dimethylamino-3-hexadecyloxy-1-propylacetat Oxalat]	23	–	–
CCCCCCCCCCCCCCCCCCOCC(COC(=O)c1ccccc1)[N+](C)(C)C (racemic) [Beispiel 4, (±)-1-Benzoyloxy-3-octadecyloxy-2-propyl-trimethylammoniumjodid]	90	104	21
